One assay deals with BALB/c 3T3-1000 cells. In words: Cell growth inhibition of BALB/c 3T3-1000 cells by vinblastine with mAb or verapamil. The assay is classed as cell-based, mouse. The note with it: 350 ng/ml vinblastine.
The test system of assay [1] is BALB/c 3T3-1000 fibroblasts. In words: Colony formation by BALB/c 3T3-1000 fibroblasts in the presence of vinblastine. In kind it is cell-based, mouse. The note with it: BALB/c 3T3-1000 cell line. As to the method: The effects of antibody preparations of the invention on drug cytotoxicity may be assessed by incubating suspensions of MDR and control cells with the antibody preparation, then testing for cell growth inhibition by colony formation, plating efficiency, and/or MTT growth inhibition assay^13,16 in the absence and presence of an anti-cancer drug such as one of the vinca alkaloids. BALB/c 3T3-1000 fibroblasts are particularly suitable for plating efficiency assays and the MDR cell line K562/inf for the growth inhibition assay. The effects of antibody preparations on drug cytotoxicity may be assayed by incubating cell suspensions with a purified antibody preparation, and plating cells in microtitre plate wells for colony or growth inhibition assays in the presence of the antibody preparation.
All drugs were obtained from Sigma, except for G418 (Gibco) and taxol (gift of Dr. S. B. Horwitz). Colony formation and MTT assays for cell growth inhibition were carried out by art-recognized procedures. […]
In the system described in FIG. 3B, we examined the effects of different mAb on colony formation by BALB/c 3T3-1000 fibroblasts in the presence of vinblastine. […] Colonies were fixed with methanol or ethanol and stained with crystal violet on day 11, and scored for plating efficiency.

Two compounds from patent publication US7598340B2, “Monoclonal antibody to a human MDR1 multidrug resistance gene product, and uses” (The Board of Trustees of the University of Illinois, priority 1992, dated 2009) can be followed below.

For the compound `COc1ccc(CCN(C)CCCC(C#N)(c2ccc(OC)c(OC)c2)C(C)C)cc1OC` (centres unmarked) [Verapamil, verapamil], in the assay on BALB/c 3T3-1000 cells, the “concentration achieving the same potentiation of vinblastine toxicity” value stood at 3 µM.
Regarding `CC[C@]1(O)C[C@@H]2CN(CCc3c([nH]c4ccccc34)[C@@](C(=O)OC)(c3cc4c(cc3OC)N(C)[C@H]3[C@@](O)(C(=O)OC)[C@H](OC(C)=O)[C@]5(CC)C=CCN6CC[C@]43[C@@H]65)C2)C1` [vinblastine], the ID90 of vinblastine in assay [1] is 0.35 µg/mL.
